This is an account of results in US12475972B2, “Prediction system for identifying key heterogeneous molecules driving tumor metastasis” (NANJING HANWEI PUBLIC HEALTH TECHNOLOGY CO., LTD., priority 2021, dated 2025).

The subject of assay [1] is BGC823 cells and BGC823-LPC1. Put plainly: Transwell experiment after FASN inhibitor EGCG. The format is cell-based. The following applies: different concentrations, 24 hours. The procedure: Further validation of the relationship between FASN and gastric cancer metastasis using transwell and scratch experiments: BGC823 cells and BGC823-LPC1 (primary cells of residual lung metastases in the animal model SP141 and JP3 combined intervention group) were treated with different concentrations of FASN inhibitor EGCG for 24 hours, followed by transwell experiments. […] The inhibition rate of perforation cells was similar in both types of cells (FIG. 20B). […] As shown in FIGS. 20A-20D, intervention on FASN can inhibit the migration of gastric cancer cells.

The test system of assay [2] is FASN. In words: Immunoblotting of FASN and FAK after EGCG. The following applies: dose-response. The format is cell-based. (In general: In western blotting, separated proteins are transferred to a membrane and probed.)
For another assay, the system named is BGC823-LPC1. Put plainly: BGC823-LPC1 passive metastasis model. The format is in vivo, mice. Particulars: compared to the solvent control group. On the procedure:
A passive metastasis model was constructed by extracting primary cells BGC823-LPC1 from residual lung metastases after joint intervention on JWA and MDM2. On the second day after injecting cells into the tail vein of the model mice, they were grouped and administered. During the medication period, they were weighed on time. At the end of the modeling, the lung wet weight of each group of mice was measured, and the situation of lung metastases was observed.

For assay [3], the system named is FASN. In words: Protein mass spectrometry of residual lung metastatic lesions. It counts as in vivo, mice. From the text:
On the basis of the above model, primary cells were extracted from the residual gastric cancer cells metastatic foci of the lungs of EGCG-treated mice, named BGC823-LPC2. Firstly, protein mass spectrometry analysis was continued on the residual metastatic lesions in the lungs of the EGCG group and the combined treatment group with SP141 and JP3, with a focus on observing the protein expression changes of each independent molecule identified in 1.4 above.

The subject of another assay is BGC823-LPC2 cells. In words: BGC823-LPC2 passive metastasis model. It counts as in vivo, nude mice. The following applies: compared with the solvent control group. From the text:
On the basis of the positive results obtained in the cell model, the animal model was then validated. A passive metastasis model was constructed using BGC823-LPC2 cells injected through the tail vein of nude mice. The mice were randomized on the second day and given control solvent, EGCG, WP-1130 alone, and WP-1130 plus sh-PFN1 lentivirus in a sequential manner.

In a further assay the test system is MGC803. Put plainly: CCK-8 half inhibitory concentration on gastric cancer cells. It counts as cell-based. The following applies: CCK-8, MGC803.
The subject of another assay is AGS. The description is as above. The format is cell-based. The following applies: CCK-8, AGS.
The next assay concerns MFC. The assay is described as above. The format is cell-based, mouse. The following applies: CCK-8, MFC.
The test system of a further assay is SGC7901. Described as above. Particulars: CCK-8, SGC7901. It counts as cell-based.
The next assay has as its system BGC823. Described as above. It counts as cell-based. The following applies: CCK-8, BGC823.
Assay [4] concerns gastric cancer cells BGC823, SGC7901, and MFC. In words: Perforated cell count (transwell) after SP141. The format is cell-based. The following applies: different doses, 24 hours.
Assay [5] shares this test system. Put plainly: Cell scratch assay after SP141. It counts as cell-based.
For assay [6], the system named is gastric cancer cell line MFC. In words: MFC abdominal implant metastasis model. The format is in vivo, mouse. The procedure:
The mouse-derived gastric cancer cell line MFC were selected to construct an abdominal implant metastasis model. On the second day of cell inoculation, different doses of SP141 were administered intraperitoneally for intervention. The modeling was completed and the number of abdominal metastatic nodules was recorded.

Assay [7] relates to MDM2. Put plainly: MDM2 and JWA protein expression in BGC823 cells after SP141. It counts as cell-based. Particulars: BGC823, 0, 0.25, 0.5 μM, 24 hours. The procedure: With a cell model, the mutual regulation between JWA and MDM2 proteins was examined. […] Thereafter, 0, 0.25, 0.5 μM SP141 were used to inhibit the expression level of MDM2 in gastric cancer cells BGC823 for 24 hours. […] Thus, it can be seen that as shown in FIGS. 9A-9C, in gastric cancer, JWA and MDM2 have no mutually regulatory relationship at the protein and mRNA levels, and their respective biological functions on gastric cancer cells are independent.

Another assay deals with AGS cells. Put plainly: Transwell assay in AGS cells, Flag-JWA plasmid and SP141. It counts as cell-based. The following applies: compared to the control group. From the text: Thus, as shown in FIGS. 10A-10B, the combined intervention of JWA and MDM2 has a synergistic inhibitory effect on gastric cancer cell migration.
A further assay deals with BGC823-luc. In words: BGC823-luc tail vein passive metastasis model, in vivo fluorescence imaging. The arrangement: species or system nude mice. The procedure:
In an in vivo model, fluorescent labeled gastric cancer cells BGC823-luc were injected into the tail vein of nude mice to construct a passive metastasis model of gastric cancer. Drug intervention began on the second day after cell inoculation (FIG. 11A). […] The weight of the mice of the drug intervention group was relatively stable and in good condition (FIG. 11B). […] Thus, as shown in FIGS. 11A-11D, the joint intervention of JWA and MDM2 has a synergistic inhibitory effect on gastric cancer metastasis in vivo.

Another assay deals with B16F10 melanoma cells. Put plainly: B16F10 tail vein passive lung metastasis model. The format is in vivo, mice. The following applies: different doses, dose-response. The procedure:
A passive metastasis model was constructed by injecting B16F10 melanoma cells into the tail vein of mice. On the second day of cell inoculation, the mice were grouped, and Ctrl-R or JP1 peptides were injected intraperitoneally for intervention. […] Note: Ctrl-R peptide and JP1 peptide can be found in Cui J, et al. Theranotics 2020; 10 (18): Recorded in 8036-8050.
A passive metastatic mouse model was constructed using B16F10 cells. On the second day of cell inoculation, different doses of SP141 were used for intervention. At the end of the modeling, the number of metastatic nodules in the lungs was recorded. As shown in FIGS. 29A-29D, SP141 can inhibit the lung metastasis of melanoma in mice, and there is a dose-response relationship. […] Conclusion: inhibition of MDM2 by SP141 can effectively reduce in vivo metastasis of melanoma in mice.
The mouse model validation was further carried out on the basis of cell model validation. A lung metastasis model with B16F10 cell tail vein injection was constructed, and on the second day, the mice were randomly grouped according to their body weight for drug intervention. As shown in FIGS. 31A-31F, the joint intervention of JWA and MDM2 has a synergistic inhibitory effect on the in vivo metastasis of melanoma. […]

Assay [8] deals with MDM2. Put plainly: MDM2 and JWA protein expression in B16F10 cells after SP141. It counts as cell-based. The following applies: B16F10, 0, 0.25, 0.5 μM, 24 hours. The procedure: The relationship between the expression levels of JWA and MDM2 genes and the prognosis of melanoma population was analyzed using the TCGA database. […] Meanwhile, melanoma cells B16F10 were treated respectively with 0, 0.25, 0.5 μM SP141 for 24 hours, and the protein expression levels of MDM2 and JWA were measured.

For a further assay, the system named is BGC823-LPC2. In words: Transwell experiment in BGC823-LPC2 cells. It counts as cell-based. The following applies: treated 8 hours, dose-response. The procedure: To verify the relationship between USP9X and gastric cancer metastasis, cultured BGC823 LPC2 cells were first treated with USP9X inhibitor WP-1130 (existing product) for 8 hours before a transwell experiment. […] Thus, it can be seen that inhibiting the expression of USP9X can effectively reduce the migration of gastric cancer cells.
For the heterogeneous molecule PFN1, a low expression lentiviral plasmid sh-PFN1 was constructed due to the lack of commercialized inhibitor compounds. Transwell experiments were performed after transfection of sh-con and sh-PFN1 in BGC823-LPC2 for 48 hours.

A further assay has as its system USP9X. In words: Immunoblotting of USP9X and p-AKT after WP-1130. Particulars: dose-response. It counts as cell-based.
Another assay has as its system BGC823 LPC2 cells. In words: Scratch experiment after WP-1130. The format is cell-based.

pIC50: −log10 of the molar value.

As usually defined, the pIC50 is the IC50 on a negative log10 scale, so that one unit is a factor of ten. Higher therefore signals a low IC50.

Turning to `O=C(O[C@@H]1Cc2c(O)cc(O)cc2O[C@@H]1c1cc(O)c(O)c(O)c1)c1cc(O)c(O)c(O)c1` [EGCG], the “number of perforation cells” value in assay [1] was “significantly reduced”. In addition, in the assay on FASN [2], the “expression level of FASN protein” value is reported as “reduced” and the “transfer related protein FAK” value is recorded as “correspondingly reduced”. Further, in the assay with BGC823-LPC1, the lung wet weight result is “significant decrease” and the “number of metastatic foci” value is recorded as “significant decrease”. Further, the “rest of the proteins inhibited” value in the assay on FASN [3] (other independent molecules identified in 1.4) is on record as “less than 20%”. Also, the FASN inhibited in the assay with FASN [3] (residual lung metastatic lesions, vs SP141 and JP3 combined treatment group) was found to be 22%. In the assay with BGC823-LPC2 cells, the lung metastatic foci result was “did not decrease significantly” and the lung wet weight entry is given as “not obvious”.
For `CCCCCCCCCCC[C@@H](C[C@@H]1OC(=O)[C@H]1CCCCCC)OC(=O)[C@H](CC(C)C)NC=O` [Orlistat], in the assay on BGC823-LPC1, the lung wet weight entry is “significant decrease” and the “number of metastatic foci” value is given as “significant decrease”.
As to `COc1ccc2[nH]c3c(-c4cccc5ccccc45)nccc3c2c1` [SP141], the pIC50 was 6.21 in the assay on MGC803; 6.47 in the assay with AGS; 6.46 in the assay on MFC; 6.16 in the assay on SGC7901; 6.22 in the assay with BGC823. In addition, the “number of perforated cells” value in assay [4] is “gradually decreased with increasing dose”. The “migration rate of the cells” value in [5] is listed as “significantly slowed down”. Also, the “number of abdominal metastatic nodules compared with the control group” value in assay [6] (40 mg/kg group) is reported as “statistically significant”. The “MDM2 protein levels in residual tumor tissues” value in [6] (40 mg/kg group vs control, immunoblotting) is “significant decrease”. Also, the “number of gastric cancer abdominal implantation metastases” value in assay [6] (different doses intraperitoneally) is on record as “could inhibit the number of gastric cancer abdominal implantation metastases”. For the same molecule, in the assay with MDM2 [7], the “protein expression level of JWA” value was “no significant change”. Moreover, the “protein expression level of MDM2” value with MDM2 [7] and in the assay with MDM2 [8] was “decreased with increasing SP141 dose” throughout. The “number of cell perforations” value in the assay on AGS cells was “decrease”. Moreover, the “fluorescence intensity of lung metastases” value in the assay on BGC823-luc was “weaker than that of the control group”. In addition, the “lung metastasis of melanoma” value with B16F10 melanoma cells was “can inhibit”. Further, the “JWA protein expression level” value in the assay on MDM2 [8] is “no significant change”.
Turning to `CCC[C@H](NC(=O)/C(C#N)=C/c1cccc(Br)n1)c1ccccc1` [WP-1130], the “number of cell perforations” value with BGC823-LPC2 was “significantly inhibit”. In addition, in the assay on USP9X, the “expression of USP9X protein” value is recorded as “reduced” and the “transfer related protein p-AKT” value is recorded as “correspondingly reduced”. The scratch experiment result with BGC823 LPC2 cells is recorded as “consistent with those of the small chamber perforation experiment”. Moreover, in the assay on BGC823-LPC2 cells, the lung metastatic foci entry was “decreased significantly” and the lung wet weight entry was “decreased significantly”.
